Laboratory results as given in patent publication US5430148A, “Antiproliferative quinazolines” (Agouron Pharmaceuticals, Inc., priority 1992, dated 1995).
Like-named read-outs stand apart in the source and are kept apart here.

Assays:
[1] = test system: GC3/M TK- cells; test: Inhibition of growth of tumor cells, thymidine kinase-deficient human colon adenocarcinoma GC3/M TK- (MTT); type: cell-based; details: for IC50: read-out: Cell Culture IC50, GC3-M (TK-)
Protocol: (§1) In Vitro Testing to Determine Inhibition of Growth of Tumor Cells
(§2) Growth was measured over 3 days (L1210) or 5 days (CCRF-CEM, GC3 /M TK^-) of continuous exposure to varying concentrations of each test compound, added 4 h. after initial cell plating, by the MTT-tetrazolium reduction assay of T. J. Mosmann [J. Immunol. Meth. […] Water insoluble derivatives were dissolved in DMSO and diluted to a final concentration of 0.5% solvent in cell cultures.

[2] = molecular target: human TS (thymidylate synthase) (Homo sapiens, UniProt P04818); test: Inhibition constants against 5,10-methylenetetrahydrofolate for thymidylate synthase, human enzyme (tritium release); type: biochemical; details: cofactor as variable substrate, pH 7.6, 24° C.
human TS (thymidylate synthase), sequence (P04818 2-313 limits assumed): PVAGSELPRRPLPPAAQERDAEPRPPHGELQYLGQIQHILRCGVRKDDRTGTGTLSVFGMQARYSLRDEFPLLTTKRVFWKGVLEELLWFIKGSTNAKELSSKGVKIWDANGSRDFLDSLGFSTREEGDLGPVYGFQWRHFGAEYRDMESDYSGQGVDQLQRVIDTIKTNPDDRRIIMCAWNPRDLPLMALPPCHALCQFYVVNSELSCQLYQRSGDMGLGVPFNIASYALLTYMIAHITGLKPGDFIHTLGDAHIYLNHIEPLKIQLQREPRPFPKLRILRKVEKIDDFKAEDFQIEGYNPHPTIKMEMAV
Protocol: (§3) Determination of Inhibition Constants Against 5,10-Methylenetetrahydrofolate for the Enzyme Thymidylate Synthase
(§4) Inhibition constants, Ki, slope and Ki, intercept [W. W. Cleland, Biochim. Biophys. […] The cofactor was present as the variable substrate under conditions of saturating radiolabelled 2'-deoxyuridine 5-monophosphate (dUMP). […] Assays of human TS also contained 1-5 μg/mL bovine serum albumin to stabilize the protein. Reactions were initiated by the addition of enzyme and were carried out for 5 minutes at 24° C., and then quenched by the addition of charcoal (15 mg in 0.1 mL H2 O). The quenched samples were centrifuged at 10,000 rpm for 12-15 min at […] to remove unreacted dUMP which had bound to the charcoal, and 0.1 mL of the supernatant was counted by liquid scintillation in the presence of 5 mL ecolume to determine the release of tritium label from the 5-position of the dUMP. […] Experimental results were analyzed by EZ-FIT, a nonlinear regression analysis program (Perrella Scientific, Springfield, Pa.) which was used to fit all data points simultaneously to a mixed noncompetitive inhibition scheme.

[3] = test system: L1210 murine leukemia cells; test: Inhibition of growth of tumor cells, L1210 murine leukemia (MTT); type: cell-based; details: for IC50: read-out: Cell Culture IC50, L1210; for inhibition at 50 µM: read-out: growth inhibition, L1210
Protocol: as §1, §2

[4] = test system: CCRF-CEM cells; test: Inhibition of growth of tumor cells, CCRF-CEM human lymphoblastic leukemia (MTT); type: cell-based; details: for IC50: read-out: Cell Culture IC50, CCRF-CEM; for inhibition at 50 µM: read-out: growth inhibition, CCRF-CEM
Protocol: as §1, §2

[5] = molecular target: E. coli TS (thymidylate synthase) (Escherichia coli, UniProt P0A884); test: Inhibition constants against 5,10-methylenetetrahydrofolate for thymidylate synthase, E. coli enzyme (tritium release); type: biochemical
E. coli TS (thymidylate synthase), sequence (P0A884 whole entry): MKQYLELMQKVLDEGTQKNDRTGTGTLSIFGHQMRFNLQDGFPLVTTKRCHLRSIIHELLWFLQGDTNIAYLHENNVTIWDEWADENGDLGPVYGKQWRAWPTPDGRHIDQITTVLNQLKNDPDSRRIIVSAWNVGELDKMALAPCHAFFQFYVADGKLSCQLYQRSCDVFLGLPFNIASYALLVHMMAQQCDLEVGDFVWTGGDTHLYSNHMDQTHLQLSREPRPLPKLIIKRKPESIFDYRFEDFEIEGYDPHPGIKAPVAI
Protocol: as §3, §4

[6] = Homo sapiens, GC3/MTK-, 120 h, 5 days continuous exposure, MTT
[7] = read-out: Ki Data, human thymidylate synthase
[8] = Mus musculus, L1210, 72 h, 3 days continuous exposure, MTT
[9] = Homo sapiens, CCRF-CEM, 120 h, 5 days continuous exposure, MTT
[10] = Ki Data, human thymidylate synthase
[11] = 5 days continuous exposure, MTT
[12] = Mus musculus, L1210, 72 h, @ > 50 μM, 3 days

Structure (SMILES)	IC50 [1, 6] [µM]	Ki [2, 7] [µM]	IC50 [3, 8] [µM]	IC50 [4, 9] [µM]	Ki [5] [µM]	also measured
Cc1nc2ccc(C)c(Sc3ccnnc3)c2c(=O)[nH]1 [Compound 29A]	> 12.5	0.12 ± 0.02				
Cc1ccc2nc(N)[nH]c(=O)c2c1Sc1ccnc(C(F)(F)F)c1 [Compound 18A, 2-Amino-3,4-dihydro-6-methyl-4-oxo-5-[4-(6-trifluoromethylpyridylthio)]-quinazoline]	> 2		1.8	> 2		inhibition at 2 µM ([1]; Homo sapiens, GC3/MTK-, 120 h, @ > 2.0 μM, 5 days): 33%; inhibition at 2 µM ([4]; Homo sapiens, CCRF-CEM, 120 h, @ > 2.0 μM, 5 days): 33%
Cc1nc2ccc(C)c(Sc3cccnc3)c2c(=O)[nH]1 [Compound 21A]						growth inhibition, GC3-M (TK-) ([1]; @ > 50 μM, 5 days): none; IC50 ([1]; Homo sapiens, GC3/MTK-, 120 h): > 50 µM; Ki [2, 10]: 190 ± 25 µM; IC50 ([3]; Mus musculus, L1210, 72 h): > 50 µM; inhibition at 50 µM ([3]; Mus musculus, L1210, 72 h): 28%; IC50 ([4]; Homo sapiens, CCRF-CEM, 120 h): > 50 µM; inhibition at 50 µM ([4]; Homo sapiens, CCRF-CEM, 120 h): 42%
Cc1nc2cccc(Sc3ccncc3)c2c(=O)[nH]1 [Compound 7A]	> 26.9	2.1 ± 0.5		> 26.9	38 ± 5	growth inhibition, GC3-M (TK-) ([1]; @ > 26.9 μM, 5 days): none; growth inhibition, L1210 ([3]; @ 20 um, 3 days): 68%; inhibition at 26.9 µM ([4]; Homo sapiens, CCRF-CEM, 120 h, @ > 26.9 μM, 5 days): 37%
Cc1nc2ccc(C)c(Sc3ccc([N+](=O)[O-])cc3)c2c(=O)[nH]1 [Compound 10A]	> 4		3	2.9	0.75 ± 0.08	Ki [2, 10]: 0.083 ± 0.011 µM
Cc1nc2cccc(Cn3cncc3-c3ccccc3)c2c(=O)[nH]1 [Compound 31A]	> 50	51 ± 2.2	48	> 50	21 ± 6	
Cc1nc2ccc(C)c(Sc3ccnc(C(F)(F)F)c3)c2c(=O)[nH]1 [Compound 17A, 3,4-Dihydro-2,6-dimethyl-4-oxo-5-[4-(6-trifluoromethylpyridylthio)]-quinazoline]		0.13 ± 0.03				
Cc1ccc2nc(N)[nH]c(=O)c2c1Sc1ccncc1 [Compound 24A]	1.2		0.55	1.1		
Cc1cc(Sc2c(C)ccc3nc(C)[nH]c(=O)c23)ccn1 [Compound 12A, 3,4-Dihydro-2,6-dimethyl-4-oxo-5-[4-(2-picolinylthio)]-quinazoline]	5		4.2	4.2	0.55 ± 0.05	Ki [2, 10]: 0.07 ± 0.001 µM
Cc1nc2cccc(Cn3ccc4cc(Cl)ccc43)c2c(=O)[nH]1 [Compound 3A, 5-Chloro-N-[(3,4-dihydro-2-methyl-4-oxo-5-quinazolyl)methyl]indole]	> 12.7	> 3		> 12.3	> 3	inhibition at 12.7 µM ([1]; Homo sapiens, GC3/MTK-, 120 h, > 12.7 μM, 5 days): 20%; inhibition at 12.3 µM ([4]; Homo sapiens, CCRF-CEM, 120 h, > 12.3 μM, 5 days): 10%
Cc1nc2cccc(Cn3cncc3-c3ccc([N+](=O)[O-])cc3)c2c(=O)[nH]1 [Compound 32A]	> 10	> 10	> 10	6	> 10	inhibition at 10 µM ([1]; Homo sapiens, GC3/MTK-, 120 h, @ > 10 μM, 5 days): 30%
Cc1ccc2nc(N)[nH]c(=O)c2c1Sc1ccncc1 [Compound 25A]						IC50 [1, 11]: 1.7 µM; IC50 ([3]; 3 days continuous exposure, MTT): 0.59 µM; IC50 [4, 11]: 1.1 µM
Cc1nc2ccc(C)c(Sc3ccc(C(=O)O)cc3)c2c(=O)[nH]1 [Compound 28A, 4-[(3,4-Dihydro-2,6-dimethyl-4-oxo-5-quinazolinyl)thio]-benzoic acid]	> 50		> 50	> 50		growth inhibition, GC3-M (TK-) ([1]; @ > 50 μM, 5 days): none; Ki [2, 10]: 0.115 µM; inhibition at 50 µM [3, 12]: 27%; growth inhibition, CCRF-CEM ([4]; @ > 50 μM, 5 days): none
Cc1nc2ccc(O)c(Sc3ccncc3)c2c(=O)[nH]1 [Compound 15A, 3,4-Dihydro-6-hydroxy-2-methyl-4-oxo-5-(4-pyridylthio)-quinazoline]	> 50	19 ± 11	> 50	> 50		inhibition at 50 µM ([1]; Homo sapiens, GC3/MTK-, 120 h, @ > 50 μM, 5 days): 4%; inhibition at 50 µM [3, 12]: 27%; inhibition at 50 µM ([4]; Homo sapiens, CCRF-CEM, 120 h, @ > 50 μM, 5 days): 40%
